From patent publication US20250082633A1, “COMPOUNDS AND METHODS FOR MODULATING SPLICING” (REMIX THERAPEUTICS INC., priority 2021, published 2025)
Where two headings read alike, the source gives them in different places.

What was measured:
Type in all cases: cell-based
MYB mRNA = assay: RT-qPCR splicing assay, MYB canonical (CJ) and alternative (AJ) junction mRNA; conditions: Homo sapiens; for IC50: read-out: MYB CJ IC50; for AC50: increase in alternative junction mRNA, read-out: MYB AJ AC50
In short: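 Splice-junction mRNAs (CJ, AJ) measured by TaqMan one-step RT-qPCR on cell lysates, using PPIA as reference for adherent A673 and GAPDH or GUSB for K562. Cells exposed for 24 h to 11 threefold concentrations up to 10 uM final, with DMSO at or below 0.25%.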

Target C = assay: RT-qPCR splicing assay, gene panel, Target C canonical junction (CJ) mRNA; conditions: Homo sapiens; decrease in CJ mRNA levels; larger panel of genes; Table 3; read-out: Target C CJ IC50
In short: (§1)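 A673 (DMEM/10% FBS) or K562 (IMDM/10% FBS) cells were treated 24 h at 37 °C with an 11-point 3-fold dilution series, top final 10 uM, DMSO ≤0.25%. Lysates underwent one-step RT-qPCR for the canonical-junction isoform with GAPDH, GUSB or PPIA as housekeeper. ΔΔCt versus DMSO was converted to RQ (2^−ΔΔCt), then to percent response.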

SMN2 mRNA = assay: RT-qPCR splicing assay, gene panel, SMN2 canonical junction (CJ) mRNA; conditions: Homo sapiens; decrease in CJ mRNA levels; larger panel of genes; Table 3; read-out: SMN2 CJ IC50
In short: as §1

[1] = decrease in CJ mRNA levels, larger panel of genes, Table 3
[2] = decrease in canonical junction mRNA, A673 or K562 cells, 24 hours treatment, Table 2
[3] = A673 or K562 cells, 24 hours treatment, Table 2

Row | Compound | IC50 (MYB mRNA; [1]) [nM] | IC50 (MYB mRNA; [2]) [nM] | IC50 (Target C) [nM] | IC50 (SMN2 mRNA) [nM] | AC50 (MYB mRNA; [3]) [nM]
1 | Cc1cn2nc(-c3cc(F)c4nn(C5CCN(C)C6(CC6)C5)cc4c3)cc(C)c2n1 (stereo not shown) [Compound 174, 6-[7-fluoro-2-(4-methyl-4-azaspiro[2.5]octan-7-yl)indazol-5-yl]-2,8-dimethyl-imidazo[1,2-b]pyridazine] | 100 to 1000 | 100 to 1000 | < 100 | < 100 | 100 to 1000
2 | Cc1cn2cc(-c3cc(F)c4nn(C5CCNCC5)cc4c3)cc(C)c2n1 [Compound 125, 5-(2,8-dimethylimidazo[1,2-a]pyridin-6-yl)-7-fluoro-2-(4-piperidyl)indazole] | 100 to 1000 | 100 to 1000 | 100 to 1000 | < 100 | 100 to 1000
3 | Cn1cc2cc(-c3ccc4nn(C5CCNCC5)cc4c3)cc(F)c2n1 [Compound 105, 7-fluoro-2-methyl-5-[2-(4-piperidyl)indazol-5-yl]indazole] | 100 to 1000 | 100 to 1000 | 100 to 1000 | < 100 | 1000 to 10000
4 | Cn1cc2cc(-c3cc(F)c4nn(C5CCNCC5)cc4c3)cc(C#N)c2n1 [Compound 130, 5-[7-fluoro-2-(4-piperidyl)indazol-5-yl]-2-methyl-indazole-7-carbonitrile] | 100 to 1000 | 100 to 1000 | 100 to 1000 | < 100 | 100 to 1000
5 | Cn1cc2cc(-c3ccc4nn(C5CCNCC5)cc4n3)c(O)c(F)c2n1 [Compound 107, 7-fluoro-2-methyl-5-[2-(4-piperidyl)pyrazolo [4,3-b]pyridin-5-yl]indazol-6-ol] | 100 to 1000 | 100 to 1000 | 100 to 1000 | < 100 | 100 to 1000
6 | Cc1cn2nc(-c3cc(F)c4nn(C5CCN(CC6CC6)C6(CC6)C5)cc4c3)cc(C)c2n1 (stereo not shown) [Compound 183, 6-[2-[4-(cyclopropylmethyl)-4-azaspiro[2.5]octan-7-yl]-7-fluoro-indazol-5-yl]-2,8-dimethyl-imidazo[1,2-b]pyridazine] | 100 to 1000 | 100 to 1000 | < 100 | < 100 | 100 to 1000
7 | Cn1cc2cc(-c3ccc4cn(C5CCNCC5)nc4c3)cc(F)c2n1 [Compound 148, 7-fluoro-2-methyl-5-[2-(4-piperidyl)indazol-6-yl]indazole] | > 10000 | > 10000 | > 10000 | 1000 to 10000 | > 10000
8 | Cc1cn2nc(-c3cc(O)c4nn(C5CCNCC5)cc4c3)cc(C)c2n1 [Compound 156, 5-(2,8-dimethylimidazo[1,2-b]pyridazin-6-yl)-2-(piperidin-4-yl)-2H-indazol-7-ol] | 1000 to 10000 | 1000 to 10000 | 1000 to 10000 | 100 to 1000 | 1000 to 10000
9 | Cc1cn2nc(-n3cc4cc(C5CCNCC5)cc(F)c4n3)cc(C)c2n1 [Compound 120, 6-[7-fluoro-5-(4-piperidyl)indazol-2-yl]-2,8-dimethyl-imidazo[1,2-b]pyridazine] | > 10000 | > 10000 | > 10000 | 100 to 1000 | 1000 to 10000
10 | Cc1cn2nc(-c3cc(F)c4nn(C5CCNC6(CC6)C5)cc4c3)cc(C)c2n1 (stereo not shown) [Compound 171, 6-[2-(4-azaspiro[2.5]octan-7-yl)-7-fluoro-indazol-5-yl]-2,8-dimethyl-imidazo[1,2-b]pyridazine] | 100 to 1000 | 100 to 1000 | < 100 | < 100 | 100 to 1000
11 | Fc1cc(-c2ccc3cnccc3c2)cc2cn(C3CCNCC3)nc12 [Compound 161, 6-[7-fluoro-2-(4-piperidyl)indazol-5-yl]isoquinoline] | 1000 to 10000 | 1000 to 10000 | 1000 to 10000 | 100 to 1000 | 1000 to 10000
12 | Cc1nc2c(C)c(O)c(-c3cc(F)c4nn(C5CCNCC5)cc4c3)cc2o1 [Compound 123, 6-[7-fluoro-2-(4-piperidyl)indazol-5-yl]-2,4-dimethyl-1,3-benzoxazol-5-ol] | 1000 to 10000 | 1000 to 10000 | 1000 to 10000 | 100 to 1000 | 1000 to 10000
13 | COc1cc(-c2cc3cn(C)nc3cc2O)nc2cn(C3CCNCC3)nc12 [Compound 140, 5-[7-methoxy-2-(4-piperidyl)pyrazolo[4,3-b]pyridin-5-yl]-2-methyl-indazol-6-ol] | 1000 to 10000 | 1000 to 10000 | 1000 to 10000 | 100 to 1000 | 1000 to 10000
14 | Cc1cc(-c2cc(F)c3nn(C4CCNCC4)cc3c2)cc2cn(C)nc12 [Compound 133, 5-(2,7-dimethylindazol-5-yl)-7-fluoro-2-(4-piperidyl)indazole] | 100 to 1000 | 100 to 1000 | 100 to 1000 | < 100 | 100 to 1000
15 | COc1cc(-c2cc(C)c3nc(C)cn3n2)cc2cn(C3CCNCC3)nc12 [Compound 155, 6-(7-methoxy-2-(piperidin-4-yl)-2H-indazol-5-yl)-2,8-dimethylimidazo [1,2-b]pyridazine] | 100 to 1000 | 100 to 1000 | 100 to 1000 | < 100 | 100 to 1000

Second part, led by results:

Row | IC50 (MYB mRNA; [1]) [nM] | IC50 (MYB mRNA; [2]) [nM] | IC50 (Target C) [nM] | IC50 (SMN2 mRNA) [nM] | Compound | AC50 (MYB mRNA; [3]) [nM]
16 | > 10000 | > 10000 | > 10000 | 1000 to 10000 | Cc1c(O)c(-c2ccc3nn(C4CCNCC4)nc3n2)cc2cn(C)nc12 [Compound 113, 2,7-dimethyl-5-[2-(4-piperidyl)triazolo[4,5-b]pyridin-5-yl]indazol-6-ol] | > 10000
17 | 100 to 1000 | 100 to 1000 | < 100 | < 100 | Cc1cn2nc(-c3cc(F)c4nn(C5CCN(CC6CC6)CC5)cc4c3)cc(C)c2n1 [Compound 149, 6-[2-[1-(cyclopropylmethyl)-4-piperidyl]-7-fluoro-indazol-5-yl]-2,8-dimethyl-imidazo[1,2-b]pyridazine] | 100 to 1000
18 | 1000 to 10000 | 1000 to 10000 | > 10000 | 1000 to 10000 | Cc1ccc2nc(-c3cc(F)c4nn(C5CCNCC5)cc4c3)ccc2n1 [Compound 157, 2-[7-fluoro-2-(4-piperidyl)indazol-5-yl]-6-methyl-1,5-naphthyridine] | > 10000
19 | 100 to 1000 | 100 to 1000 | 100 to 1000 | < 100 | Cc1nc2ccc(-c3cc(F)c4nn(C5CCNCC5)cc4c3)cc2o1 [Compound 135, 6-[7-fluoro-2-(4-piperidyl)indazol-5-yl]-2-methyl-1,3-benzoxazole] | 100 to 1000
20 | > 10000 | > 10000 | > 10000 | 1000 to 10000 | Fc1cc(-c2ccc3ncccc3c2)cc2cn(C3CCNCC3)nc12 [Compound 162, 6-[7-fluoro-2-(4-piperidyl)indazol-5-yl]quinoline] | > 10000
21 | 100 to 1000 | 100 to 1000 | 100 to 1000 | < 100 | Cc1c(O)c(-c2ccc3nn(C4CCNCC4)cc3n2)cc2cn(C)nc12 [Compound 109, 2,7-dimethyl-5-[2-(4-piperidyl)pyrazolo[4,3-b]pyridin-5-yl]indazol-6-ol] | 100 to 1000
22 | 100 to 1000 | 100 to 1000 | 100 to 1000 | < 100 | Cc1cn2nc(-c3cc(F)c4nn(C5CCNCC5F)cc4c3)cc(C)c2n1 (stereo not shown) [Compound 166, 6-[7-fluoro-2-(3-fluoro-4-piperidyl)indazol-5-yl]-2,8-dimethyl-imidazo [1,2-b]pyridazine] | 100 to 1000
23 | > 10000 | > 10000 | > 10000 | 1000 to 10000 | Cn1cc2cc(-c3cc(Cl)c4nn(C5CCNCC5)cc4n3)c(O)cc2n1 [Compound 141] | > 10000
